Reference: patent US20160243062A1, “SYNTHESIS AND GROWTH REGULATORY ACTIVITY OF A PROTOTYPE MEMBER OF A NEW FAMILY OF AMINOTHIOL RADIOPROTECTORS” (WISCONSIN ALUMNI RESEARCH FOUNDATION, priority 2012, published 2016)

Tested on: radiation dermatitis in rat skin
Test: Rat radiation dermatitis assay, topical application before irradiation
Assay type: in vivo
Method: To determine if PrC-210 could function as a topical radioprotector that could prevent radiation dermatitis when applied prior to a cancer patient's daily radiotherapy, a rat assay that realistically mimics human radiation dermatitis was created. This assay quantifies the severity of radiation dermatitis in rat skin 13 days after a single radiation dose of 17.33 Gy.
In this study, PrC-210 was applied to rat skin in an ethanol/water delivery vehicle four times in the 2 h before irradiation, and control rats received only topical vehicle before irradiation (FIG. 2). Additional drug/irradiation groups of three rats each received either the alkyl-thiol moiety or the alkyldiamine moiety from PrC-210 in the same delivery vehicle. Following the 17.33 Gy irradiation of a […] patch of dorsal skin on the rats' backs, rats were scored 13 days later.
Molecules were applied to skin in an alcohol/water delivery vehicle prior to receiving a 17.33 Gy radiation dose to the 1.5 cm×3.0 cm skin site. Radiation dermatitis severity (i.e., % of the site covered by scab material) was scored 13 days following irradiation.

With `CNCC(CS)CNC` [PrC-210, 3-(methyl-amino)-2-((methylamino)methyl)propane-l-thiol] the “topical radioprotective potency and efficacy compared with thiolated polyamines and other PrC-200 series aminothiols” value (radiodermatitis test groups) was “most potent and most effective topical aminothiol to date” and the “prevention of radiation dermatitis (% of the site covered by scab material)” value (topical in ethanol/water vehicle four times in the 2 h before single 17.33 Gy dose, scored 13 days later) was “completely prevent radiation dermatitis”.
